Measurements: patent publication US20260070945A1, “MACROCYCLIC IMMUNOMODULATORS” (Bristol-Myers Squibb Company, priority 2022, published 2026)
*1 amine or outer side, *2 acyl side, *3 side chain or, on linkers, in order; H or OH if unused. Where a SMILES comes first, the peptide text is derived from it. Bridges are numbered along the chain shown (N, C = ends). [ ]: non-standard residue; d: D form. The star is where a group is joined. ξ: configuration not given here. Phe(3-CF3) = N[C@@H](Cc1cccc(C(F)(F)F)c1)C(=O)O; Phe(4-COOH) = N[C@@H](Cc1ccc(C(=O)O)cc1)C(=O)O; Bip = N[C@@H](Cc1ccc(-c2ccccc2)cc1)C(=O)O; γGlu = O=C(O)[C@H](CCC(=O)[*:2])N[*:1]; Abu(3S-NH2) = C[C@H](N)[C@H](N)C(=O)O; NH(CH2)12COOH = O=C(O)CCCCCCCCCCCCN*; Val(3-OH) = CC(C)(O)[C@H](N)C(=O)O; hArg = N=C(N)NCCCC[C@H](N)C(=O)O; 4Pal = N[C@@H](Cc1ccncc1)C(=O)O; Cha = N[C@@H](CC1CCCCC1)C(=O)O; Ile(3ξ) = CCC(C)[C@H](N)C(=O)O; Thr(3ξ) = CC(O)[C@H](N)C(=O)O; 12Ado = NCCCCCCCCCCCC(=O)O; Carboxymethyl = O=C(O)C*; NMeA = CN[C@@H](C)C(=O)O; Orn = NCCC[C@H](N)C(=O)O; dDap = NC[C@@H](N)C(=O)O; Aun = NCCCCCCCCCCC(=O)O; Dab = NCC[C@H](N)C(=O)O; Dap = NC[C@H](N)C(=O)O; AEEA = NCCOCCOCC(=O)O

What follows are molecules tested against T1, PD-1/PD-L1 interaction (PE-labeled human PD-L1-Ig binding to Jurkat cell line over-expressing human PD-1) (Homo sapiens, UniProt Q15116) (assay: Jurkat-PD-1 Cell Binding High-Content Screening Assay (CBA)). Conditions: Jurkat-hPD-1 cells, PE-labeled PD-L1-Ig 20 nM final; read-out: Jurkat HPD1 PDL1 IC50.
T1 construct: expressed in transfected cells; host or cells: Jurkat
T1 sequence (Q15116 25-288): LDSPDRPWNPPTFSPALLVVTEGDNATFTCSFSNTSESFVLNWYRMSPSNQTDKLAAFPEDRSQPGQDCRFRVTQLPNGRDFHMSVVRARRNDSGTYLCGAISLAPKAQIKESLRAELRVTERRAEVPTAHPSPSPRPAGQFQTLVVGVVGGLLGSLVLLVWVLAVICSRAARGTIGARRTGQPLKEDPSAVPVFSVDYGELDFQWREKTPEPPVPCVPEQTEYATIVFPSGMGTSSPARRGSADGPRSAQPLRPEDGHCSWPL
In short: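 High-content imaging read-out of PE-PD-L1-Ig binding (20 nM final, 1 h) to Jurkat-hPD-1 cells, after 2 h compound exposure at 37 °C in DMEM with 10% FCS. Nuclei counterstained with Hoechst 33342 after paraformaldehyde fixation.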

IC50 | SMILES
20 nM | CCC(C)[C@@H]1NC(=O)[C@H](Cc2ccc(-c3ccccc3)cc2)NC(=O)[C@H](CC(C)C)NC(=O)[C@H](Cc2c[nH]c3ccccc23)NC(=O)[C@H](CC(=O)O)NC(=O)[C@H](Cc2ccc(C(=O)O)cc2)NC(=O)[C@H](Cc2ccc(OCC(=O)O)cc2)NC(=O)CSC[C@@H](C(=O)NCCOCCOCC(=O)N[C@H](CN)C(=O)NCCOCCOCC(=O)NCCCCCCCCCCC(=O)O)NC(=O)[C@H](CO)NC(=O)[C@H](C(C)C)NC(=O)[C@H](CC2CCCCC2)NC(=O)[C@H](CCN)NC(=O)[C@@H](CC(C)C)NC(=O)[C@H](C)N(C)C1=O (stereo partly drawn) [Example 2056] ({CH2CO}-Y(Carboxymethyl)[Phe(4-COOH)]DWL[Bip][Ile(3ξ)][NMeA][dL][Dab][Cha]VSC[AEEA][dDap][AEEA][Aun]-OH; thioether N-14)
3.8 nM | CC(C)C[C@@H]1NC(=O)[C@H](Cc2c[nH]c3ccccc23)NC(=O)[C@H](CC(=O)O)NC(=O)[C@H](Cc2ccc(C(=O)O)cc2)NC(=O)[C@H](Cc2ccc(OCC(=O)O)cc2)NC(=O)CSC[C@@H](C(=O)N[C@@H](CCN)C(=O)NCCOCCOCC(=O)NCCCCCCCCCCC(=O)O)NC(=O)[C@H](CCN)NC(=O)[C@H](C(C)(C)O)NC(=O)[C@H](CC2CCCCC2)NC(=O)[C@H](CCN)NC(=O)[C@@H](CC(C)C)NC(=O)[C@H](C)N(C)C(=O)[C@H](C(C)C)NC(=O)[C@H](Cc2ccc(-c3ccccc3)cc2)NC1=O [Example 1127] ({CH2CO}-Y(Carboxymethyl)[Phe(4-COOH)]DWL[Bip]V[NMeA][dL][Dab][Cha][Val(3-OH)][Dab]C[Dab][AEEA][Aun]-OH; thioether N-14)
20.3 nM | CC(C)C[C@H]1NC(=O)[C@H](C)N(C)C(=O)[C@H](C(C)C)NC(=O)[C@H](Cc2ccc(-c3ccccc3)cc2)NC(=O)[C@H](C(C)C)NC(=O)[C@H](Cc2c[nH]c3ccccc23)NC(=O)[C@H](CC(=O)O)NC(=O)[C@H](Cc2ccc(OCC(=O)O)cc2)NC(=O)[C@H](CCCNC(=N)N)NC(=O)CSC[C@@H](C(=O)N[C@H](CC(N)=O)C(=O)NCCOCCOCC(=O)NCCCCCCCCCCCC(=O)O)NC(=O)[C@H](CCCCN)NC(=O)[C@H](C(C)C)NC(=O)[C@H](CC2CCCCC2)NC(=O)[C@H](CCN)NC1=O [Example 2204] ({CH2CO}-RY(Carboxymethyl)DWV[Bip]V[NMeA][dL][Dab][Cha]VKC[dN][AEEA][12Ado]-OH; thioether N-14)
50.7 nM | CCC(C)[C@@H]1NC(=O)[C@H](Cc2ccc(-c3ccccc3)cc2)NC(=O)[C@H](CC(C)C)NC(=O)[C@H](Cc2c[nH]c3ccccc23)NC(=O)[C@H](CC(=O)O)NC(=O)[C@H](Cc2ccc(OCC(=O)O)cc2)NC(=O)[C@H](Cc2ccncc2)NC(=O)CSC[C@@H](C(=O)N[C@@H](CCCN)C(=O)NCCOCCOCC(=O)NCCCCCCCCCCC(=O)O)NC(=O)[C@H](CO)NC(=O)[C@H](C(C)C)NC(=O)[C@H](CC2CCCCC2)NC(=O)[C@H](Cc2c[nH]cn2)NC(=O)[C@@H](CC(C)C)NC(=O)[C@H](C)N(C)C1=O (stereo partly drawn) [Example 2087] ({CH2CO}-[4Pal]Y(Carboxymethyl)DWL[Bip][Ile(3ξ)][NMeA][dL]H[Cha]VSC[Orn][AEEA][Aun]-OH; thioether N-14)
30.2 nM | CCC(C)[C@@H]1NC(=O)[C@H](Cc2ccc(-c3ccccc3)cc2)NC(=O)[C@H](CC(C)C)NC(=O)[C@H](Cc2c[nH]c3ccccc23)NC(=O)[C@H](CC(=O)O)NC(=O)[C@H](Cc2ccc(OCC(=O)O)cc2)NC(=O)[C@H](CCCCNC(=N)N)NC(=O)CSC[C@@H](C(=O)NCCOCCOCC(=O)N[C@@H](CCN)C(=O)NCCCCCCCCCCC(=O)O)NC(=O)[C@H](CCCCN)NC(=O)[C@H](C(C)C)NC(=O)[C@H](CC2CCCCC2)NC(=O)[C@H](CCN)NC(=O)[C@@H](CC(C)C)NC(=O)[C@H](C)N(C)C1=O (stereo partly drawn) [Example 2184] ({CH2CO}-[hArg]Y(Carboxymethyl)DWL[Bip][Ile(3ξ)][NMeA][dL][Dab][Cha]VKC[AEEA][Dab][Aun]-OH; thioether N-14)

More lines, now with the values behind:

SMILES | IC50
CC(C)C[C@@H]1NC(=O)[C@H](Cc2c[nH]c3ccccc23)NC(=O)[C@H](CC(=O)O)NC(=O)[C@H](Cc2ccc(OCC(=O)O)cc2)NC(=O)[C@H](C(C)O)NC(=O)CSC[C@@H](C(=O)NCCOCCOCC(=O)NCCCCCCCCCCC(=O)O)NC(=O)[C@H](CCC(=O)O)NC(=O)[C@H](C(C)C)NC(=O)[C@H](CC2CCCCC2)NC(=O)[C@H](CCN)NC(=O)[C@@H](CC(C)C)NC(=O)[C@H](C)N(C)C(=O)[C@H](C(C)C)NC(=O)[C@H](Cc2ccc(-c3ccccc3)cc2)NC1=O (stereo partly drawn) [Example 2291] ({CH2CO}-[Thr(3ξ)]Y(Carboxymethyl)DWL[Bip]V[NMeA][dL][Dab][Cha]VEC[AEEA][Aun]-OH; thioether N-14) | 28.9 nM
CC(C)C[C@H]1NC(=O)[C@H](C)N(C)C(=O)[C@H](C(C)C)NC(=O)[C@H](Cc2ccc(-c3ccccc3)cc2)NC(=O)[C@H](C(C)C)NC(=O)[C@H](Cc2c[nH]c3ccccc23)NC(=O)[C@H](CC(=O)O)NC(=O)[C@H](Cc2ccc(OCC(=O)O)cc2)NC(=O)[C@H](CCCNC(=N)N)NC(=O)CSC[C@@H](C(=O)NCC(=O)NCCOCCOCC(=O)N[C@@H](CCCN)C(=O)NCCCCCCCCCCCC(=O)O)NC(=O)[C@H](CCCN)NC(=O)[C@H](C(C)C)NC(=O)[C@H](CC2CCCCC2)NC(=O)[C@H](CCN)NC1=O [Example 2160] ({CH2CO}-RY(Carboxymethyl)DWV[Bip]V[NMeA][dL][Dab][Cha]V[Orn]CG[AEEA][Orn][12Ado]-OH; thioether N-14) | 12.2 nM
CC(C)C[C@@H]1NC(=O)[C@H](Cc2c[nH]c3ccccc23)NC(=O)[C@H](CC(=O)O)NC(=O)[C@H](Cc2ccc(C(=O)O)cc2)NC(=O)[C@H](Cc2ccc(OCC(=O)O)cc2)NC(=O)CSC[C@@H](C(=O)N[C@@H](CCCN)C(=O)NCCOCCOCC(=O)NCCCCCCCCCCC(=O)O)NC(=O)[C@H](CN)NC(=O)[C@H](C(C)C)NC(=O)[C@H](CC2CCCCC2)NC(=O)[C@H](CC(N)=O)NC(=O)[C@@H](CC(C)C)NC(=O)[C@H](C)N(C)C(=O)[C@H](C(C)C)NC(=O)[C@H](Cc2ccc(-c3ccccc3)cc2)NC1=O [Example 2143] ({CH2CO}-Y(Carboxymethyl)[Phe(4-COOH)]DWL[Bip]V[NMeA][dL]N[Cha]V[Dap]C[Orn][AEEA][Aun]-OH; thioether N-14) | 61.3 nM
CC(C)C[C@H]1NC(=O)[C@H](C)N(C)C(=O)[C@H](CCC(N)=O)NC(=O)[C@H](Cc2ccc(-c3ccccc3)cc2)NC(=O)[C@H](Cc2ccc(C(=O)O)cc2)NC(=O)[C@H](Cc2cccc(C(F)(F)F)c2)NC(=O)[C@H](CC(=O)O)NC(=O)[C@H](Cc2ccc(OCC(=O)O)cc2)NC(=O)[C@H](Cc2ccc(C(=O)O)cc2)NC(=O)CSC[C@@H](C(=O)N[C@@H](CCN)C(=O)NCCOCCOCC(=O)N[C@@H](CCC(=O)NCCOCCOCC(=O)NCCCCCCCCCCCCC(=O)O)C(=O)O)NC(=O)[C@H](CCC(=O)O)NC(=O)[C@H](C(C)C)NC(=O)[C@H](CC2CCCCC2)NC(=O)[C@H](CCN)NC1=O [Example 1183] ({CH2CO}-[Phe(4-COOH)]Y(Carboxymethyl)D[Phe(3-CF3)][Phe(4-COOH)][Bip]Q[NMeA][dL][Dab][Cha]VEC[Dab][AEEA][γGlu][AEEA]-{NH(CH2)12COOH}; thioether N-14) | 94.1 nM
CC(C)C[C@@H]1NC(=O)[C@H](Cc2c[nH]c3ccccc23)NC(=O)[C@H](CC(=O)O)NC(=O)[C@H](Cc2ccc(OCC(=O)O)cc2)NC(=O)[C@H](Cc2ccc(OCC(=O)O)cc2)NC(=O)CSC[C@@H](C(=O)N[C@@H](CCN)C(=O)NCCOCCOCC(=O)NCCCCCCCCCCC(=O)O)NC(=O)[C@H](CO)NC(=O)[C@H](C(C)C)NC(=O)[C@H](CC(C)C)NC(=O)[C@H](CCN)NC(=O)[C@@H](CC(C)C)NC(=O)[C@H](C)N(C)C(=O)[C@H](C(C)C)NC(=O)[C@H](Cc2ccc(-c3ccccc3)cc2)NC1=O [Example 2039] ({CH2CO}-Y(Carboxymethyl)Y(Carboxymethyl)DWL[Bip]V[NMeA][dL][Dab]LVSC[Dab][AEEA][Aun]-OH; thioether N-14) | 879 nM
CC(C)C[C@H]1NC(=O)[C@H](C)N(C)C(=O)[C@H](CCC(N)=O)NC(=O)[C@H](Cc2ccc(-c3ccccc3)cc2)NC(=O)[C@H](Cc2ccc(C(=O)O)cc2)NC(=O)[C@H](Cc2cccc(C(F)(F)F)c2)NC(=O)[C@H](CC(=O)O)NC(=O)[C@H](Cc2ccc(OCC(=O)O)cc2)NC(=O)[C@H]([C@H](C)N)NC(=O)CSC[C@@H](C(=O)N[C@@H](CCN)C(=O)NCCCCCCCCCCCCC(=O)O)NC(=O)[C@H](CO)NC(=O)[C@H](C(C)(C)O)NC(=O)[C@H](CC2CCCCC2)NC(=O)[C@H](CCN)NC1=O [Example 1190] ({CH2CO}-[Abu(3S-NH2)]Y(Carboxymethyl)D[Phe(3-CF3)][Phe(4-COOH)][Bip]Q[NMeA][dL][Dab][Cha][Val(3-OH)]SC[Dab]-{NH(CH2)12COOH}; thioether N-14) | 18 nM
CC(C)C[C@@H]1NC(=O)[C@H](Cc2c[nH]c3ccccc23)NC(=O)[C@H](CC(=O)O)NC(=O)[C@H](Cc2ccc(C(=O)O)cc2)NC(=O)[C@H](Cc2ccc(OCC(=O)O)cc2)NC(=O)CSC[C@@H](C(=O)N[C@@H](CCN)C(=O)NCCCCCCCCCCC(=O)O)NC(=O)[C@H](CCC(N)=O)NC(=O)[C@H](C(C)C)NC(=O)[C@H](CC2CCCCC2)NC(=O)[C@H](CCN)NC(=O)[C@@H](CC(C)C)NC(=O)[C@H](C)N(C)C(=O)[C@H](C(C)C)NC(=O)[C@H](Cc2ccc(-c3ccccc3)cc2)NC1=O [Example 1000] ({CH2CO}-Y(Carboxymethyl)[Phe(4-COOH)]DWL[Bip]V[NMeA][dL][Dab][Cha]VQC[Dab][Aun]-OH; thioether N-14) | 23.4 nM
